± gives the standard deviation of the averaged measurements.
Tests used:
NILOTINIB [1] = compound: T1, Cc1cn(-c2cc(NC(=O)c3ccc(C)c(Nc4nccc(-c5cccnc5)n4)c3)cc(C(F)(F)F)c2)cn1 [NILOTINIB]; test: area under dose-response curve of surviving fraction (unscaled, Aref=0) (surviving fraction x log10(nM)); higher = more resistant; conditions: exposure time: 5 days; dose range 0.5-1000 nM
Outline: (§1)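 Inhibitor was applied to tumour cell lines at eight concentrations (0.5 to 1000 nM) for five days in 384-well plates. Luminescence from CellTiter-Glo, scaled to DMSO-only wells, gave surviving fractions in three screens per line, and these were fitted by 3-parameter logistic regression with the drc R package. The area under the curve is an unscaled activity area. Aref was 0, and dose was on a log10 scale.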

IMATINIB [2] = compound: T2, Cc1ccc(NC(=O)c2ccc(CN3CCN(C)CC3)cc2)cc1Nc1nccc(-c2cccnc2)n1 [IMATINIB]; test: as above; conditions: exposure time: 5 days; dose range 0.5-1000 nM
Outline: as §1

[3] = compound: COc1ccc(-c2cc3c(C)nc(N)nc3n([C@H]3CC[C@H](OCCO)CC3)c2=O)cn1; test: as above; conditions: exposure time: 5 days; dose range 0.5-1000 nM
Outline: as §1

MK-1775 = compound: C=CCn1c(=O)c2cnc(Nc3ccc(N4CCN(C)CC4)cc3)nc2n1-c1cccc(C(C)(C)O)n1 [MK-1775]; test: as above; conditions: exposure time: 5 days; dose range 0.5-1000 nM
Outline: as §1

BMN-673 [4] = compound: T3, Cn1ncnc1[C@H]1c2n[nH]c(=O)c3cc(F)cc(c23)N[C@@H]1c1ccc(F)cc1 [BMN-673]; test: as above; conditions: exposure time: 5 days; dose range 0.5-1000 nM
Outline: as §1

BEZ-235 = compound: Cn1c(=O)n(-c2ccc(C(C)(C)C#N)cc2)c2c3cc(-c4cnc5ccccc5c4)ccc3ncc21 [BEZ-235]; test: as above; conditions: exposure time: 5 days; dose range 0.5-1000 nM
Outline: as §1

[5] = compound: CCc1cc(Nc2nccc(-c3c(-c4ccc(OC)c(C(=O)Nc5c(F)cccc5F)c4)nc4ccccn34)n2)c(OC)cc1N1CCC(N2CCN(S(C)(=O)=O)CC2)CC1; test: as above; conditions: exposure time: 5 days; dose range 0.5-1000 nM
Outline: as §1

VORINOSTAT = compound: O=C(CCCCCCC(=O)Nc1ccccc1)NO [VORINOSTAT]; test: as above; conditions: exposure time: 5 days; dose range 0.5-1000 nM
Outline: as §1

[6] = compound: C[C@H](CN(C)C)Oc1nc(Nc2cc3cccc(Cl)c3cn2)cnc1C#N; test: as above; conditions: exposure time: 5 days; dose range 0.5-1000 nM
Outline: as §1

BLEOMYCIN = compound: Cc1c(N)nc([C@H](CC(N)=O)NC[C@H](N)C(N)=O)nc1C(=O)N[C@H](C(=O)N[C@H](C)[C@@H](O)[C@H](C)C(=O)N[C@H](C(=O)NCCc1nc(-c2nc(C(=O)NCCC[S+](C)C)cs2)cs1)[C@@H](C)O)[C@@H](OC1OC(CO)C(O)C(O)C1OC1OC(CO)C(O)C(OC(N)=O)C1O)c1cnc[nH]1 [BLEOMYCIN]; test: as above; conditions: exposure time: 5 days; dose range 0.5-1000 nM
Outline: as §1

CABOZANTINIB [7] = compound: T4, COc1cc2nccc(Oc3ccc(NC(=O)C4(C(=O)Nc5ccc(F)cc5)CC4)cc3)c2cc1OC [CABOZANTINIB]; test: as above; conditions: exposure time: 5 days; dose range 0.5-1000 nM
Outline: as §1

AFIMOXIFENE [8] = compound: T5, CC/C(=C(\c1ccc(O)cc1)c1ccc(OCCN(C)C)cc1)c1ccccc1 [AFIMOXIFENE]; test: as above; conditions: exposure time: 5 days; dose range 0.5-1000 nM
Outline: as §1

NILOTINIB [9] = compound: T1, NILOTINIB; test: surviving fraction relative to DMSO-only wells; higher = less growth inhibition; conditions: exposure time: 5 days
Outline: (§2)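 In 384-well plates, 250–500 log-phase tumour cells per well were given 24 hours before five days of continuous exposure to inhibitors at 0.5, 1, 5, 10, 50, 100, 500 and 1000 nM. Surviving fraction is luminescence from CellTiter-Glo, normalised to the median of wells containing DMSO alone. Reading took place after 10 minutes at room temperature.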

IMATINIB [10] = compound: T2, IMATINIB; test: as above; conditions: exposure time: 5 days
Outline: as §2

BMN-673 [11] = compound: T3, BMN-673; test: as above; conditions: exposure time: 5 days
Outline: as §2

[12] = compound: C[C@H](CN(C)C)Oc1nc(Nc2cc3cccc(Cl)c3cn2)cnc1C#N; test: as above; conditions: exposure time: 5 days
Outline: as §2

CABOZANTINIB [13] = compound: T4, CABOZANTINIB; test: as above; conditions: exposure time: 5 days
Outline: as §2

AFIMOXIFENE [14] = compound: T5, AFIMOXIFENE; test: as above; conditions: exposure time: 5 days
Outline: as §2

HS57T LUNG
area under dose-response curve (NILOTINIB [1]): 3.38 | area under dose-response curve (IMATINIB [2]): 3.57 | area under dose-response curve [3]: 2.21 | area under dose-response curve (MK-1775): 2.19 | area under dose-response curve (BMN-673 [4]): 2.92 | area under dose-response curve (BEZ-235): 1.94 | area under dose-response curve [5]: 3.36 | area under dose-response curve (VORINOSTAT): 3.16 | area under dose-response curve [6]: 2.65 | area under dose-response curve (BLEOMYCIN): 2.57 | area under dose-response curve (CABOZANTINIB [7]): 3.09 | area under dose-response curve (AFIMOXIFENE [8]): 3.68

CCK81 LARGE INTESTINE
area under dose-response curve (NILOTINIB [1]): 2.58 | area under dose-response curve (IMATINIB [2]): 2.6 | area under dose-response curve (BMN-673 [4]): 2.04 | area under dose-response curve [6]: 2.09 | area under dose-response curve (CABOZANTINIB [7]): 2.42 | area under dose-response curve (AFIMOXIFENE [8]): 2.84 | surviving fraction (NILOTINIB [9]; 0.5 nM): 0.78 ± 0.088 | surviving fraction (NILOTINIB [9]; 1 nM): 0.839 ± 0.07 | surviving fraction (NILOTINIB [9]; 5 nM): 0.759 ± 0.055 | surviving fraction (NILOTINIB [9]; 10 nM): 0.737 ± 0.11 | surviving fraction (NILOTINIB [9]; 50 nM): 0.931 ± 0.04 | surviving fraction (NILOTINIB [9]; 100 nM): 0.877 ± 0.046 | surviving fraction (NILOTINIB [9]; 500 nM): 0.702 ± 0.1 | surviving fraction (NILOTINIB [9]; 1000 nM): 0.616 ± 0.023 | surviving fraction (IMATINIB [10]; 0.5 nM): 0.813 ± 0.083 | surviving fraction (IMATINIB [10]; 1 nM): 0.815 ± 0.09 | surviving fraction (IMATINIB [10]; 5 nM): 0.81 ± 0.038 | surviving fraction (IMATINIB [10]; 10 nM): 0.795 ± 0.048 | surviving fraction (IMATINIB [10]; 50 nM): 0.706 ± 0.049 | surviving fraction (IMATINIB [10]; 100 nM): 0.843 ± 0.11 | surviving fraction (IMATINIB [10]; 500 nM): 0.741 ± 0.078 | surviving fraction (IMATINIB [10]; 1000 nM): 0.778 ± 0.047 | surviving fraction (BMN-673 [11]; 0.5 nM): 0.838 ± 0.087 | surviving fraction (BMN-673 [11]; 1 nM): 0.781 ± 0.094 | surviving fraction (BMN-673 [11]; 5 nM): 0.733 ± 0.091 | surviving fraction (BMN-673 [11]; 10 nM): 0.619 ± 0.092 | surviving fraction (BMN-673 [11]; 50 nM): 0.54 ± 0.034 | surviving fraction (BMN-673 [11]; 100 nM): 0.552 ± 0.03 | surviving fraction (BMN-673 [11]; 500 nM): 0.493 ± 0.079 | surviving fraction (BMN-673 [11]; 1000 nM): 0.406 ± 0.058 | surviving fraction ([12]; 0.5 nM): 0.681 ± 0.1 | surviving fraction ([12]; 1 nM): 0.819 ± 0.097 | surviving fraction ([12]; 5 nM): 0.726 ± 0.09 | surviving fraction ([12]; 10 nM): 0.739 ± 0.029 | surviving fraction ([12]; 50 nM): 0.774 ± 0.15 | surviving fraction ([12]; 100 nM): 0.52 ± 0.084 | surviving fraction ([12]; 500 nM): 0.349 ± 0.069 | surviving fraction ([12]; 1000 nM): 0.374 ± 0.049 | surviving fraction (CABOZANTINIB [13]; 0.5 nM): 0.691 ± 0.07 | surviving fraction (CABOZANTINIB [13]; 1 nM): 0.837 ± 0.062 | surviving fraction (CABOZANTINIB [13]; 5 nM): 0.725 ± 0.12 | surviving fraction (CABOZANTINIB [13]; 10 nM): 0.764 ± 0.019 | surviving fraction (CABOZANTINIB [13]; 50 nM): 0.704 ± 0.073 | surviving fraction (CABOZANTINIB [13]; 100 nM): 0.686 ± 0.075 | surviving fraction (CABOZANTINIB [13]; 500 nM): 0.718 ± 0.12 | surviving fraction (CABOZANTINIB [13]; 1000 nM): 0.743 ± 0.08 | surviving fraction (AFIMOXIFENE [14]; 0.5 nM): 0.822 ± 0.1 | surviving fraction (AFIMOXIFENE [14]; 1 nM): 0.889 ± 0.095 | surviving fraction (AFIMOXIFENE [14]; 5 nM): 0.866 ± 0.083 | surviving fraction (AFIMOXIFENE [14]; 10 nM): 0.822 ± 0.09 | surviving fraction (AFIMOXIFENE [14]; 50 nM): 0.987 ± 0.24 | surviving fraction (AFIMOXIFENE [14]; 100 nM): 0.749 ± 0.051 | surviving fraction (AFIMOXIFENE [14]; 500 nM): 0.932 ± 0.04 | surviving fraction (AFIMOXIFENE [14]; 1000 nM): 0.82 ± 0.027
